Active and inactive are the calls of the source. The rule behind the calls is not given here.
Assays:
RAW264.7 [1] = experiment: Increase in TNF-alpha production in mouse RAW264.7 cells at 50 uM incubated for 24 hrs by ELISA (reference value: 1133.56 +/- 46.61 pg/ml); format: functional
RAW264.7 [2] = experiment: Increase in TNF-alpha production in mouse RAW264.7 cells incubated for 24 hrs by ELISA; format: functional, cell-based; conditions: RAW264.7, 24 h
[3] = Increase in TNF-alpha production in mouse BMDM cells incubated for 24 hrs by ELISA; format: functional, cell-based
[4] = Toxicity in C57BL/6 mouse xenografted with mouse LLC cells assessed as effect on liver at 5 mg/kg, ip administered every other day for 30 days by H and E staining based microscopic analysis; format: organism-based; conditions: in vivo, 720 h
RAW264.7 [5] = experiment: Inhibition of M2-phenotype associated markers in mouse RAW264.7 cells assessed as F4/80-CD206 expression in presence of IL4 incubated for 24 hrs by flow cytometry (reference value: 7.54 %); format: functional
Mus musculus [6] = experiment: In vivo induction of M1-phenotype associated marker in C57BL/6 mouse xenografted with mouse LLC cells assessed as increase in F4/80-iNOS expression at 5 mg/kg, ip administered every other day for 30 days by DAPI staining based immunofluorescence microscopic analysis; format: functional, organism-based
RAW264.7 [7] = experiment: Induction of M1-phenotype associated markers in mouse RAW264.7 cells assessed as F4/80-MHC II expression incubated for 24 hrs by flow cytometry (reference value: 12.1 %); format: functional
[8] = Toxicity in C57BL/6 mouse xenografted with mouse LLC cells assessed as effect on lungs at 5 mg/kg, ip administered every other day for 30 days by H and E staining based microscopic analysis; format: organism-based; conditions: in vivo, 720 h
RAW264.7 [9] = experiment: Inhibition of M2-phenotype markers expression in mouse RAW264.7 cells assessed as decrease in IL-4 -induced CD206 expression incubated for 1 hr by qRT-PCR; format: functional, cell-based
RAW264.7 [10] = experiment: Cytotoxicity against mouse RAW264.7 cells assessed as reduction in cell viability at 1000 uM incubated for 24 hrs by CCK-8 assay; format: cell-based; conditions: raw264.7, 24 h
RAW264.7 [11] = experiment: Induction of M1-phenotype markers expression in mouse RAW264.7 cells assessed as increase in IL-12alpha expression incubated for 1 hr by qRT-PCR; format: functional, cell-based
RAW264.7 [12] = experiment: Induction of M1-phenotype markers expression in mouse RAW264.7 cells assessed as increase in TNFalpha expression incubated for 1 hr by qRT-PCR; format: functional, cell-based
RAW264.7 [13] = experiment: Induction of M1-phenotype markers expression in mouse RAW264.7 cells assessed as increase in iNOS expression incubated for 1 hr by qRT-PCR; format: functional, cell-based
[14] = system: Lewis lung carcinoma cell line; experiment: Antitumor activity against mouse LLC cells xenografted in C57BL/6 mouse assessed as reduction in tumor weight in prescence of anti-PD1 at 5 mg/kg, ip administered every other day for 30 days; format: functional, organism-based
[15] = Toxicity in C57BL/6 mouse xenografted with mouse LLC cells assessed as effect on body weight at 5 mg/kg, ip administered every other day for 30 days; format: organism-based; conditions: in vivo, 720 h
[16] = system: Lewis lung carcinoma cell line; experiment: Antitumor activity against mouse LLC cells xenografted in C57BL/6 mouse assessed as reduction in tumor volume at 5 mg/kg, ip administered every other day for 30 days; format: functional, organism-based
RAW264.7 [17] = experiment: Inhibition of M2-phenotype markers expression in mouse RAW264.7 cells assessed as decrease in IL-4 -induced in Arg-1 expression incubated for 1 hr by qRT-PCR; format: functional, cell-based
[18] = system: Lewis lung carcinoma cell line; experiment: Antitumor activity against mouse LLC cells xenografted in C57BL/6 mouse assessed as reduction in tumor volume in prescence of anti-PD1 at 5 mg/kg, ip administered every other day for 30 days; format: functional, organism-based
Mus musculus [19] = experiment: In vivo inhibition of M2-phenotype associated marker in C57BL/6 mouse xenografted with mouse LLC cells assessed as decrease in F4/80-CD206 expression at 5 mg/kg, ip administered every other day for 30 days by DAPI staining based immunofluorescence microscopic analysis; format: functional, organism-based
RAW264.7 [20] = experiment: Inhibition of M2-phenotype markers expression in mouse RAW264.7 cells assessed as decrease in IL-4 -induced in Ym-1R expression incubated for 1 hr by qRT-PCR; format: functional, cell-based
RAW264.7 [21] = experiment: Inhibition of M2-phenotype markers expression in mouse RAW264.7 cells assessed as decrease in IL-4 -induced in Fizz-1 expression incubated for 1 hr by qRT-PCR; format: functional, cell-based
Mus musculus [22] = experiment: In vivo induction of M1-phenotype associated marker in C57BL/6 mouse xenografted with mouse LLC cells assessed as increase in F4/80-iNOS expression in presence of anti-PD1 at 5 mg/kg, ip administered every other day for 30 days by DAPI staining based immunofluorescence microscopic analysis; format: functional, organism-based
RAW264.7 [23] = experiment: Induction of M1-phenotype markers expression in mouse RAW264.7 cells assessed as increase in IL-1beta expression incubated for 1 hr by qRT-PCR; format: functional, cell-based
Mus musculus [24] = experiment: In vivo inhibition of M2-phenotype associated marker in C57BL/6 mouse xenografted with mouse LLC cells assessed as decrease in F4/80-CD206 expression in presence of anti-PD1 at 5 mg/kg, ip administered every other day for 30 days by DAPI staining based immunofluorescence microscopic analysis; format: functional, organism-based
[25] = Toxicity in C57BL/6 mouse xenografted with mouse LLC cells assessed as effect on body weight in prescence of anti-PD1 (1 mg/kg) at 5 mg/kg, ip administered every other day for 30 days; format: organism-based; conditions: in vivo, 720 h
[26] = system: Lewis lung carcinoma cell line; experiment: Antitumor activity against mouse LLC cells xenografted in C57BL/6 mouse assessed as reduction in tumor weight at 5 mg/kg, ip administered every other day for 30 days; format: functional, organism-based

`O=C(Nc1ccc(Cl)c(C(F)(F)F)c1)NC1CCc2[nH]c3c(C(=O)NCCOCCO)cccc3c2C1` (configuration not stated) showed an Activity (RAW264.7 [1]) of 3364.65 pg/mL.

`O=C(Nc1ccc(Cl)c(C(F)(F)F)c1)NC1CCc2[nH]c3cccc(C(=O)N4CCOCC4)c3c2C1` (configuration not stated) gave an Activity (RAW264.7 [1]) of 4025.54 pg/mL.

For `O=C(Nc1ccc(Cl)c(C(F)(F)F)c1)NC1CCc2[nH]c3c(C(=O)NC4CC4)cccc3c2C1` (configuration not stated), the EC50 (RAW264.7 [2]) was 18.4 µM, the Activity (RAW264.7 [1]) was 7730.01 pg/mL and the EC50 [3] was 63.5 µM.

In the case of `Cn1cc(-c2cccc3[nH]c4c(c23)CC(NC(=O)Nc2ccc(Cl)c(C(F)(F)F)c2)CC4)cn1` (configuration not stated), the Activity [4] is reported as “Non-Toxic”, the EC50 (RAW264.7 [2]) is reported as 17.2 µM and the “inhibition (INH)” value (RAW264.7 [5]) is reported as 8.76%. The Activity (Mus musculus [6]) was “Active”, the Activity (RAW264.7 [7]) was 24.4% and the Activity [8] was “Non-Toxic”. For the same compound, the inhibition (RAW264.7 [9]) was “Dose-dependent effect”, the Activity (RAW264.7 [10]) was “Non-Toxic” and the Activity (RAW264.7 [11]) was “Dose-dependent effect”. The Activity (RAW264.7 [12]) was “Dose-dependent effect”, the Activity (RAW264.7 [13]) was “Dose-dependent effect” and the Activity [14] was “Active”. For the same compound, the Activity (RAW264.7 [1]) was 5994.12 pg/mL, the Activity [15] was “Non-Toxic” and the Activity [16] was “Active”. For the same compound, the inhibition (RAW264.7 [17]) was “Dose-dependent effect”, the Activity [18] was “Active” and the Activity (Mus musculus [19]) was “Active”. For the same compound, the inhibition (RAW264.7 [20]) was “Dose-dependent effect”, the inhibition (RAW264.7 [21]) was “Dose-dependent effect” and the Activity (Mus musculus [22]) was “Active”. For the same compound, the EC50 [3] was 18.9 µM, the Activity (RAW264.7 [23]) was “Dose-dependent effect” and the Activity (Mus musculus [24]) was “Active”. For the same compound, the Activity [25] was “Non-Toxic” and the Activity [26] was “Active”.

Compound `O=C(Nc1ccc(Cl)c(C(F)(F)F)c1)NC1CCc2[nH]c3cccc(C(=O)NC4CC4)c3c2C1` (configuration not stated) has an Activity (RAW264.7 [1]) of 6427.32 pg/mL.

In the case of `O=C(Nc1ccc(Cl)c(C(F)(F)F)c1)NC1CCc2[nH]c3ccc(C(=O)NCCOCCO)cc3c2C1` (configuration not stated), the Activity (RAW264.7 [1]) is reported as 561.78 pg/mL.

Work on `O=C(Nc1ccc(Cl)c(C(F)(F)F)c1)NC1CCc2[nH]c3cc(C(=O)NCCOCCO)ccc3c2C1` (configuration not stated) yielded an Activity (RAW264.7 [1]) of 6968.79 pg/mL.

With `CN1CCN(C(=O)c2ccc3c4c([nH]c3c2)CCC(NC(=O)Nc2ccc(Cl)c(C(F)(F)F)c2)C4)CC1` (configuration not stated) the Activity (RAW264.7 [1]) was 6552.76 pg/mL.

In the case of `O=C(Nc1ccc(Cl)c(C(F)(F)F)c1)NC1CCc2[nH]c3cc(C(=O)NCCO)ccc3c2C1` (configuration not stated), the Activity (RAW264.7 [1]) is reported as 4377.67 pg/mL.

With `O=C(Nc1ccc(Cl)c(C(F)(F)F)c1)NC1CCc2[nH]c3cccc(-c4cnn(CCO)c4)c3c2C1` (configuration not stated) the EC50 (RAW264.7 [2]) was 13.4 µM, the Activity (RAW264.7 [1]) was 6714.86 pg/mL and the EC50 [3] was 20.9 µM.

In the case of `CN1CCN(C(=O)c2cccc3c4c([nH]c23)CCC(NC(=O)Nc2ccc(Cl)c(C(F)(F)F)c2)C4)CC1` (configuration not stated), the Activity (RAW264.7 [1]) is reported as 2506.98 pg/mL.

Work on `O=C(Nc1ccc(Cl)c(C(F)(F)F)c1)NC1CCc2[nH]c3cc(C(=O)NCCCO)ccc3c2C1` (configuration not stated) yielded an Activity (RAW264.7 [1]) of 5030.39 pg/mL.

Work on `CC(C)NC(=O)c1ccc2c3c([nH]c2c1)CCC(NC(=O)Nc1ccc(Cl)c(C(F)(F)F)c1)C3` (configuration not stated) yielded an Activity (RAW264.7 [1]) of 5566.34 pg/mL.

Compound `O=C(Nc1ccc(Cl)c(C(F)(F)F)c1)NC1CCc2[nH]c3ccc(C(=O)N4CCOCC4)cc3c2C1` (configuration not stated) has an Activity (RAW264.7 [1]) of 5510.03 pg/mL.

In the case of `O=C(Nc1ccc(Cl)c(C(F)(F)F)c1)NC1CCc2[nH]c3cccc(C(=O)NCCOCCO)c3c2C1` (configuration not stated), the Activity (RAW264.7 [1]) is reported as 500.62 pg/mL.

With `O=C(Nc1ccc(Cl)c(C(F)(F)F)c1)NC1CCc2[nH]c3cc(C(=O)NC4CC4)ccc3c2C1` (configuration not stated) the Activity (RAW264.7 [1]) was 6034.58 pg/mL.

`O=C(Nc1ccc(Cl)c(C(F)(F)F)c1)NC1CCc2[nH]c3cc(C(=O)N4CCOCC4)ccc3c2C1` (configuration not stated) gave an Activity (RAW264.7 [1]) of 6085.83 pg/mL.

Compound `O=C(Nc1ccc(Cl)c(C(F)(F)F)c1)NC1CCc2[nH]c3cc(-c4cnn(CCO)c4)ccc3c2C1` (configuration not stated) has an Activity (RAW264.7 [1]) of 6043.84 pg/mL.

For `Cn1cc(-c2ccc3c4c([nH]c3c2)CCC(NC(=O)Nc2ccc(Cl)c(C(F)(F)F)c2)C4)cn1` (configuration not stated), the Activity (RAW264.7 [1]) was 3770.66 pg/mL.

Work on `CN1CCN(C(=O)c2ccc3[nH]c4c(c3c2)CC(NC(=O)Nc2ccc(Cl)c(C(F)(F)F)c2)CC4)CC1` (configuration not stated) yielded an Activity (RAW264.7 [1]) of 4935.9 pg/mL.

Compound `O=C(Nc1ccc(Cl)c(C(F)(F)F)c1)NC1CCc2[nH]c3c(C(=O)N4CCOCC4)cccc3c2C1` (configuration not stated) has an Activity (RAW264.7 [1]) of 4127.15 pg/mL.

Compound `O=C(Nc1ccc(Cl)c(C(F)(F)F)c1)NC1CCc2[nH]c3ccc(C(=O)NC4CC4)cc3c2C1` (configuration not stated) has an Activity (RAW264.7 [1]) of 4458.11 pg/mL.

`CN1CCN(C(=O)c2cccc3[nH]c4c(c23)CC(NC(=O)Nc2ccc(Cl)c(C(F)(F)F)c2)CC4)CC1` (configuration not stated) showed an Activity (RAW264.7 [1]) of 3714.66 pg/mL.
